# Measurements reported in publication PMC11601581 (bioRxiv, 2024).
# Biological target: NTSR1 (Homo sapiens, UniProt P30989)
# Experiment: BRET1 β-arrestin1/2 recruitment to NTSR1, ligand alone
# Format: cell-based
# Sequence of NTSR1 (P30989 whole entry): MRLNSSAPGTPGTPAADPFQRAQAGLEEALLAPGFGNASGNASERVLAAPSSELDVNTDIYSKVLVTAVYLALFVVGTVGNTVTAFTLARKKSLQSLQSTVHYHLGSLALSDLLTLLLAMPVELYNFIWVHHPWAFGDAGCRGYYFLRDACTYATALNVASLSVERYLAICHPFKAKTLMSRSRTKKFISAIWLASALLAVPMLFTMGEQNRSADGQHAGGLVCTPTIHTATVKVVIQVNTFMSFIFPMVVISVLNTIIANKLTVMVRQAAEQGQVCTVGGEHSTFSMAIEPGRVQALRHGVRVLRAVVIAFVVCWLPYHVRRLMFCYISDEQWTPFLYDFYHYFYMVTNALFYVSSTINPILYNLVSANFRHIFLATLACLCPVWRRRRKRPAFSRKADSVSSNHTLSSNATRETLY
smiles,measurement,setting,value
COc1cccc(OC)c1-c1cc(C(=O)NC2(C(=O)O)C3CC4CC(C3)CC2C4)nn1-c1ccc(C(=O)N(C)CCCN(C)C)cc1C(C)C (centres unmarked) [SR142948A],agonist efficacy,β-arrestin1,without effect
same,agonist efficacy,β-arrestin2,without effect
